Assay results: US10251395B2, “Substituted furano-/thienocycloalkylamino-2-pyrimidine derivatives and use thereof for controlling undesired plant growth” (Bayer CropScience Aktiengesellschaft, priority 2015, dated 2019)

What was measured:
Format in all cases: in vivo
Abutilon theophrasti [1] = assay: Pre-emergence herbicidal effect; details: scored visually after 3 weeks
Summary of the method: (§1)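 Using soil-surface application before emergence, the compound was delivered in a water volume equating to 600 to 800 L/ha. Plants grew in a greenhouse for 3 weeks; activity was then rated visually in percent against untreated plants, with 100% for plants killed.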

Veronica persica [2] = assay: Pre-emergence herbicidal effect; details: scored visually after 3 weeks
Summary of the method: as §1

Stellaria media [3] = assay: Pre-emergence herbicidal effect; details: scored visually after 3 weeks
Summary of the method: as §1

Viola tricolor [4] = assay: Pre-emergence herbicidal effect; details: scored visually after 3 weeks
Summary of the method: as §1

Amaranthus retroflexus [5] = assay: Pre-emergence herbicidal effect; details: scored visually after 3 weeks
Summary of the method: as §1

Ipomoea purpurea [6] = assay: Pre-emergence herbicidal effect; details: scored visually after 3 weeks
Summary of the method: as §1

Lolium multiflorum [7] = assay: Pre-emergence herbicidal effect; details: Dosage 320 g/ha, scored visually after 3 weeks
Summary of the method: as §1

Polygonum convolvulus [8] = assay: Pre-emergence herbicidal effect; details: scored visually after 3 weeks
Summary of the method: as §1

Matricaria inodora [9] = assay: Pre-emergence herbicidal effect; details: scored visually after 3 weeks
Summary of the method: as §1

Setaria viridis [10] = assay: Pre-emergence herbicidal effect; details: scored visually after 3 weeks
Summary of the method: as §1

Echinochloa crus-galli [11] = assay: Pre-emergence herbicidal effect; details: scored visually after 3 weeks
Summary of the method: as §1

Alopecurus myosuroides [12] = assay: Pre-emergence herbicidal effect; details: scored visually after 3 weeks
Summary of the method: as §1

Avena fatua = assay: Pre-emergence herbicidal effect; details: Dosage 320 g/ha, scored visually after 3 weeks
Summary of the method: as §1

Veronica persica [13] = assay: Post-emergence herbicidal effect; details: assessed visually after about 3 weeks vs untreated controls
Summary of the method: (§2)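 Percent herbicidal action was judged by eye roughly 3 weeks post-application, 0% matching control plants and 100% meaning plant death. Seedlings, greenhouse-grown in sandy loam, received the spray at one leaf.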

Stellaria media [14] = assay: Post-emergence herbicidal effect; details: assessed visually after about 3 weeks vs untreated controls
Summary of the method: as §2

Echinochloa crus-galli [15] = assay: Post-emergence herbicidal effect; details: assessed visually after about 3 weeks vs untreated controls
Summary of the method: as §2

Viola tricolor [16] = assay: Post-emergence herbicidal effect; details: assessed visually after about 3 weeks vs untreated controls
Summary of the method: as §2

Amaranthus retroflexus [17] = assay: Post-emergence herbicidal effect; details: assessed visually after about 3 weeks vs untreated controls
Summary of the method: as §2

Ipomoea purpurea [18] = assay: Post-emergence herbicidal effect; details: assessed visually after about 3 weeks vs untreated controls
Summary of the method: as §2

Lolium multiflorum [19] = assay: Post-emergence herbicidal effect; details: 320 g/ha, assessed visually after about 3 weeks vs untreated controls
Summary of the method: as §2

Polygonum convolvulus [20] = assay: Post-emergence herbicidal effect; details: assessed visually after about 3 weeks vs untreated controls
Summary of the method: as §2

Matricaria inodora [21] = assay: Post-emergence herbicidal effect; details: assessed visually after about 3 weeks vs untreated controls
Summary of the method: as §2

Abutilon theophrasti [22] = assay: Post-emergence herbicidal effect; details: assessed visually after about 3 weeks vs untreated controls
Summary of the method: as §2

Alopecurus myosuroides [23] = assay: Post-emergence herbicidal effect; details: 320 g/ha, assessed visually after about 3 weeks vs untreated controls
Summary of the method: as §2

Setaria viridis [24] = assay: Post-emergence herbicidal effect; details: assessed visually after about 3 weeks vs untreated controls
Summary of the method: as §2

## CCOC(=O)c1cnc(NC2CCCc3sc(C)cc32)nc1C (racemic) [compound 240]
Abutilon theophrasti [1]; Dosage 320 g/ha
  ABUTH pre-emergence efficacy (herbicidal activity): 70%
Veronica persica [2]; Dosage 80 g/ha
  VERPE pre-emergence efficacy (herbicidal activity): 100%
Veronica persica [2]; Dosage 320 g/ha
  VERPE pre-emergence efficacy (herbicidal activity): 100%
Stellaria media [3]; Dosage 80 g/ha
  STEME pre-emergence efficacy (herbicidal activity): 100%
Stellaria media [3]; Dosage 320 g/ha
  STEME pre-emergence efficacy (herbicidal activity): 100%
Viola tricolor [4]; Dosage 80 g/ha
  VIOTR pre-emergence efficacy (herbicidal activity): 70%
Viola tricolor [4]; Dosage 320 g/ha
  VIOTR pre-emergence efficacy (herbicidal activity): 100%
Amaranthus retroflexus [5]; Dosage 320 g/ha
  AMARE pre-emergence efficacy (herbicidal activity): 80%
Ipomoea purpurea [6]; Dosage 320 g/ha
  PHBPU pre-emergence efficacy (herbicidal activity): 10%
Lolium multiflorum [7]
  LOLMU pre-emergence efficacy (herbicidal activity): 60%
Polygonum convolvulus [8]; Dosage 80 g/ha
  POLCO pre-emergence efficacy (herbicidal activity): 70%
Polygonum convolvulus [8]; Dosage 320 g/ha
  POLCO pre-emergence efficacy (herbicidal activity): 70%
Matricaria inodora [9]; Dosage 80 g/ha
  MATIN pre-emergence efficacy (herbicidal activity): 90%
Matricaria inodora [9]; Dosage 320 g/ha
  MATIN pre-emergence efficacy (herbicidal activity): 100%
Setaria viridis [10]; Dosage 80 g/ha
  SETVI pre-emergence efficacy (herbicidal activity): 90%
Setaria viridis [10]; Dosage 320 g/ha
  SETVI pre-emergence efficacy (herbicidal activity): 100%

## CS(=O)(=O)c1cnc(NC2CCCc3sccc32)nc1N (racemic) [compound 23]
Veronica persica [2]; Dosage 80 g/ha
  VERPE pre-emergence efficacy (herbicidal activity): 100%
Veronica persica [2]; Dosage 320 g/ha
  VERPE pre-emergence efficacy (herbicidal activity): 100%
Stellaria media [3]; Dosage 80 g/ha
  STEME pre-emergence efficacy (herbicidal activity): 100%
Stellaria media [3]; Dosage 320 g/ha
  STEME pre-emergence efficacy (herbicidal activity): 100%
Echinochloa crus-galli [11]; Dosage 320 g/ha
  ECHCG pre-emergence efficacy (herbicidal activity): 100%
Viola tricolor [4]; Dosage 80 g/ha
  VIOTR pre-emergence efficacy (herbicidal activity): 100%
Viola tricolor [4]; Dosage 320 g/ha
  VIOTR pre-emergence efficacy (herbicidal activity): 100%
Alopecurus myosuroides [12]; Dosage 320 g/ha
  ALOMY pre-emergence efficacy (herbicidal activity): 80%
Amaranthus retroflexus [5]; Dosage 80 g/ha
  AMARE pre-emergence efficacy (herbicidal activity): 100%
Amaranthus retroflexus [5]; Dosage 320 g/ha
  AMARE pre-emergence efficacy (herbicidal activity): 100%
Ipomoea purpurea [6]; Dosage 320 g/ha
  PHBPU pre-emergence efficacy (herbicidal activity): 100%
Lolium multiflorum [7]
  LOLMU pre-emergence efficacy (herbicidal activity): 100%
Polygonum convolvulus [8]; Dosage 80 g/ha
  POLCO pre-emergence efficacy (herbicidal activity): 100%
Polygonum convolvulus [8]; Dosage 320 g/ha
  POLCO pre-emergence efficacy (herbicidal activity): 100%
Avena fatua
  AVEFA pre-emergence efficacy (herbicidal activity): 90%
Matricaria inodora [9]; Dosage 80 g/ha
  MATIN pre-emergence efficacy (herbicidal activity): 100%
Matricaria inodora [9]; Dosage 320 g/ha
  MATIN pre-emergence efficacy (herbicidal activity): 100%
Setaria viridis [10]; Dosage 320 g/ha
  SETVI pre-emergence efficacy (herbicidal activity): 100%
Veronica persica [13]; 80 g/ha
  post-emergence efficacy VERPE: 90%
Veronica persica [13]; 320 g/ha
  post-emergence efficacy VERPE: 90%
Stellaria media [14]; 320 g/ha
  post-emergence efficacy STEME: 90%
Echinochloa crus-galli [15]; 320 g/ha
  post-emergence efficacy ECHCG: 80%
Viola tricolor [16]; 80 g/ha
  post-emergence efficacy VIOTR: 80%
Viola tricolor [16]; 320 g/ha
  post-emergence efficacy VIOTR: 100%
Amaranthus retroflexus [17]; 80 g/ha
  post-emergence efficacy AMARE: 80%
Amaranthus retroflexus [17]; 320 g/ha
  post-emergence efficacy AMARE: 80%
Ipomoea purpurea [18]; 80 g/ha
  post-emergence efficacy PHBPU: 80%
Ipomoea purpurea [18]; 320 g/ha
  post-emergence efficacy PHBPU: 80%
Lolium multiflorum [19]
  post-emergence efficacy LOLMU: 80%
Polygonum convolvulus [20]; 320 g/ha
  post-emergence efficacy POLCO: 80%
Matricaria inodora [21]; 80 g/ha
  post-emergence efficacy MATIN: 80%
Matricaria inodora [21]; 320 g/ha
  post-emergence efficacy MATIN: 100%

## Cc1cc2c(s1)CCCC2Nc1nc(N)c(-c2cccc(F)c2)c(C(F)F)n1 (racemic) [compound 302]
Abutilon theophrasti [1]; Dosage 320 g/ha
  ABUTH pre-emergence efficacy (herbicidal activity): 80%
Stellaria media [3]; Dosage 80 g/ha
  STEME pre-emergence efficacy (herbicidal activity): 100%
Stellaria media [3]; Dosage 320 g/ha
  STEME pre-emergence efficacy (herbicidal activity): 100%
Echinochloa crus-galli [11]; Dosage 320 g/ha
  ECHCG pre-emergence efficacy (herbicidal activity): 100%
Alopecurus myosuroides [12]; Dosage 320 g/ha
  ALOMY pre-emergence efficacy (herbicidal activity): 70%
Amaranthus retroflexus [5]; Dosage 80 g/ha
  AMARE pre-emergence efficacy (herbicidal activity): 100%
Amaranthus retroflexus [5]; Dosage 320 g/ha
  AMARE pre-emergence efficacy (herbicidal activity): 100%
Ipomoea purpurea [6]; Dosage 80 g/ha
  PHBPU pre-emergence efficacy (herbicidal activity): 60%
Ipomoea purpurea [6]; Dosage 320 g/ha
  PHBPU pre-emergence efficacy (herbicidal activity): 80%
Polygonum convolvulus [8]; Dosage 80 g/ha
  POLCO pre-emergence efficacy (herbicidal activity): 70%
Polygonum convolvulus [8]; Dosage 320 g/ha
  POLCO pre-emergence efficacy (herbicidal activity): 100%
Matricaria inodora [9]; Dosage 80 g/ha
  MATIN pre-emergence efficacy (herbicidal activity): 90%
Matricaria inodora [9]; Dosage 320 g/ha
  MATIN pre-emergence efficacy (herbicidal activity): 100%
Setaria viridis [10]; Dosage 80 g/ha
  SETVI pre-emergence efficacy (herbicidal activity): 70%
Setaria viridis [10]; Dosage 320 g/ha
  SETVI pre-emergence efficacy (herbicidal activity): 100%
Abutilon theophrasti [22]; 320 g/ha
  post-emergence efficacy ABUTH: 60%
Stellaria media [14]; 320 g/ha
  post-emergence efficacy STEME: 80%
Viola tricolor [16]; 80 g/ha
  post-emergence efficacy VIOTR: 90%
Viola tricolor [16]; 320 g/ha
  post-emergence efficacy VIOTR: 90%

## Cc1cc2c(s1)CCCC2Nc1ncc(C(F)(F)F)c(N)n1 (racemic) [compound 61]
Abutilon theophrasti [1]; Dosage 80 g/ha
  ABUTH pre-emergence efficacy (herbicidal activity): 30%
Abutilon theophrasti [1]; Dosage 320 g/ha
  ABUTH pre-emergence efficacy (herbicidal activity): 100%
Veronica persica [2]; Dosage 80 g/ha
  VERPE pre-emergence efficacy (herbicidal activity): 100%
Veronica persica [2]; Dosage 320 g/ha
  VERPE pre-emergence efficacy (herbicidal activity): 100%
Stellaria media [3]; Dosage 80 g/ha
  STEME pre-emergence efficacy (herbicidal activity): 90%
Stellaria media [3]; Dosage 320 g/ha
  STEME pre-emergence efficacy (herbicidal activity): 100%
Echinochloa crus-galli [11]; Dosage 80 g/ha
  ECHCG pre-emergence efficacy (herbicidal activity): 90%
Echinochloa crus-galli [11]; Dosage 320 g/ha
  ECHCG pre-emergence efficacy (herbicidal activity): 90%
Viola tricolor [4]; Dosage 80 g/ha
  VIOTR pre-emergence efficacy (herbicidal activity): 80%
Viola tricolor [4]; Dosage 320 g/ha
  VIOTR pre-emergence efficacy (herbicidal activity): 100%
Alopecurus myosuroides [12]; Dosage 80 g/ha
  ALOMY pre-emergence efficacy (herbicidal activity): 80%
Alopecurus myosuroides [12]; Dosage 320 g/ha
  ALOMY pre-emergence efficacy (herbicidal activity): 100%
Amaranthus retroflexus [5]; Dosage 80 g/ha
  AMARE pre-emergence efficacy (herbicidal activity): 100%
Amaranthus retroflexus [5]; Dosage 320 g/ha
  AMARE pre-emergence efficacy (herbicidal activity): 100%
Ipomoea purpurea [6]; Dosage 320 g/ha
  PHBPU pre-emergence efficacy (herbicidal activity): 90%
Polygonum convolvulus [8]; Dosage 80 g/ha
  POLCO pre-emergence efficacy (herbicidal activity): 90%
Polygonum convolvulus [8]; Dosage 320 g/ha
  POLCO pre-emergence efficacy (herbicidal activity): 90%
Avena fatua
  AVEFA pre-emergence efficacy (herbicidal activity): 80%
Matricaria inodora [9]; Dosage 80 g/ha
  MATIN pre-emergence efficacy (herbicidal activity): 100%
Matricaria inodora [9]; Dosage 320 g/ha
  MATIN pre-emergence efficacy (herbicidal activity): 100%
Setaria viridis [10]; Dosage 80 g/ha
  SETVI pre-emergence efficacy (herbicidal activity): 100%
Setaria viridis [10]; Dosage 320 g/ha
  SETVI pre-emergence efficacy (herbicidal activity): 100%
Abutilon theophrasti [22]; 80 g/ha
  post-emergence efficacy ABUTH: 90%
Abutilon theophrasti [22]; 320 g/ha
  post-emergence efficacy ABUTH: 90%
Veronica persica [13]; 80 g/ha
  post-emergence efficacy VERPE: 100%
Veronica persica [13]; 320 g/ha
  post-emergence efficacy VERPE: 100%
Stellaria media [14]; 80 g/ha
  post-emergence efficacy STEME: 100%
Stellaria media [14]; 320 g/ha
  post-emergence efficacy STEME: 100%
Echinochloa crus-galli [15]; 80 g/ha
  post-emergence efficacy ECHCG: 100%
Echinochloa crus-galli [15]; 320 g/ha
  post-emergence efficacy ECHCG: 100%
Viola tricolor [16]; 80 g/ha
  post-emergence efficacy VIOTR: 90%
Viola tricolor [16]; 320 g/ha
  post-emergence efficacy VIOTR: 90%
Alopecurus myosuroides [23]
  post-emergence efficacy ALOMY: 100%
Amaranthus retroflexus [17]; 80 g/ha
  post-emergence efficacy AMARE: 90%
Amaranthus retroflexus [17]; 320 g/ha
  post-emergence efficacy AMARE: 90%
Ipomoea purpurea [18]; 80 g/ha
  post-emergence efficacy PHBPU: 90%
Ipomoea purpurea [18]; 320 g/ha
  post-emergence efficacy PHBPU: 100%
Lolium multiflorum [19]
  post-emergence efficacy LOLMU: 90%
Polygonum convolvulus [20]; 80 g/ha
  post-emergence efficacy POLCO: 80%
Polygonum convolvulus [20]; 320 g/ha
  post-emergence efficacy POLCO: 90%
Matricaria inodora [21]; 320 g/ha
  post-emergence efficacy MATIN: 100%
Setaria viridis [24]; 80 g/ha
  post-emergence efficacy SETVI: 80%
Setaria viridis [24]; 320 g/ha
  post-emergence efficacy SETVI: 90%
